Test results reported in paper PMC9508812 (2022).

Legend:
[1] = tested on: GG1 (DNA, mismatch bulge abasic) CTAACGGAATG/CATTCGGTTAG; experiment: CD; conditions: Na+ 100 mM (NaCl); 10 mM sodium cacodylate pH 7.0, room temperature; 5 µM DNA, 20 µM NCD
[2] = tested on: GG1 (DNA, mismatch bulge abasic) CTAACGGAATG/CATTCGGTTAG; experiment: ITC; conditions: Na+ 100 mM (NaCl), 10 mM sodium cacodylate pH 7.0, 25 °C, 2.5 µM DNA, 50 µM NCD titrant
[3] = tested on: GG1 (DNA, mismatch bulge abasic) CTAACGGAATG/CATTCGGTTAG; experiment: UV melting at 260 nm; conditions: Na+ 100 mM (NaCl); 10 mM sodium cacodylate pH 7.0; 5 µM DNA, 20 µM NCD; Tm without and with NCD
[4] = tested on: d(CGG)10 (DNA, repeat) CGGCGGCGGCGGCGGCGGCGGCGGCGGCGG; experiment: CSI-TOF MS; conditions: NH4+ 100 mM (ammonium acetate); 50% aqueous methanol, spray -10 °C; 10 µM DNA, 50 µM NCD
[5] = tested on: GG1 (DNA, mismatch bulge abasic) CTAACGGAATG/CATTCGGTTAG; experiment: NMR structure and titration; conditions: Na+ 100 mM (NaCl); 20 mM sodium phosphate pH 6.8, 283 K; slow exchange, cooperative
[6] = tested on: GG1 with a T4 hairpin loop (DNA, mismatch bulge abasic) CTAACGGAATGTTTTCATTCGGTTAG; experiment: CSI-TOF MS; conditions: NH4+ 100 mM (ammonium acetate); 50% aqueous methanol, spray -10 °C; 5 µM DNA, 100 µM NCD; 1:1 complex not observed

binding [1]: yes | apparent KD [2]: 67 nM | Tm [3]: 21.8 °C | binding [4]: yes | binding [5]: yes | binding [6]: yes
Compound: Cc1ccc2ccc(NC(=O)OCCCNCCCOC(=O)Nc3ccc4ccc(C)nc4n3)nc2n1
